Source: ChEMBL document CHEMBL4017528, “Fragment-Based Discovery and Optimization of Enzyme Inhibitors by Docking of Commercial Chemical Space” (J Med Chem, 2017)
pEC50, pIC50: −log10 of the molar value.

Tests used:
[1] = target: Oxidized purine nucleoside triphosphate hydrolase (Homo sapiens, UniProt P36639); experiment: Inhibition of human recombinant His-tagged MTH1 expressed in Escherichia coli BL21 using dGTP as substrate after 15 mins by malachite green reagent-based assay
HeLa = experiment: Cytotoxicity against human HeLa cells after 72 hrs by WST-8 assay; format: functional, cell-based

pIC50 [1]	Structure (SMILES)	pEC50 (HeLa)
6.77	Nc1nc(SCCc2ccccc2)c2nc[nH]c2n1	
4.62	CSc1nc2c(N)ncnc2[nH]1	
	Nc1nc(NCCc2ccccc2)c2nc[nH]c2n1	4.46
5.25	Cc1nc(N)nc2ccccc12	
